From PubChem BioAssay AID248 (DTP/NCI, 2004)
“And” between values parts separate entries of the source, which are not always exact repeats. Equal values may be shown once. Inconclusive results and toxic doses are left out. Cut-off read from the data, not from the text of the source: active = T/C of 150% or more; inactive = T/C below 125%.

Test system: L1210 leukemia ip in BDF1 mice, survival T/C
Assay: NCI In Vivo Anticancer Drug Screen. Data for tumor model L1210 Leukemia (intraperitoneal) in B6D2F1 (BDF1) mice
Details: endpoint: mean survival time, higher = longer survival
Summary of the method: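 Read-out is survival time, reported as the treated-group measurement over the vehicle-control measurement.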

[1] = dose: 100.0 mg/kg/injection, schedule: Q01DX001 (ip), vehicle: saline
[2] = dose: 200.0 mg/kg/injection, schedule: Q01DX001 (ip), vehicle: saline
[3] = dose: 200.0 mg/kg/injection, schedule: Q04DX002 (ip), vehicle: saline with Tween-80
[4] = dose: 400.0 mg/kg/injection, schedule: Q04DX002 (ip), vehicle: saline with Tween-80
[5] = dose: 100.0 mg/kg/injection, schedule: Q01DX009 (ip), vehicle: saline with Tween-80
[6] = dose: 100.0 mg/kg/injection, schedule: Q04DX003 (ip), vehicle: saline with Tween-80
[7] = dose: 200.0 mg/kg/injection, schedule: Q04DX003 (ip), vehicle: saline with Tween-80
[8] = dose: 50.0 mg/kg/injection, schedule: Q01DX001 (ip), vehicle: saline

Measured: T/C

O=C(NC1CCC(NC(=O)N2CC2)CC1)N1CC1 (configuration not stated)
active: dose: 0.8 mg/kg/injection, schedule: Q01DX009 (ip), vehicle: carboxymethylcellulose (CMC) 164 % of control | dose: 1.2 mg/kg/injection, schedule: Q01DX009 (ip), vehicle: carboxymethylcellulose (CMC) 164 % of control | dose: 1.8 mg/kg/injection, schedule: Q01DX009 (ip), vehicle: carboxymethylcellulose (CMC) 170 % of control | dose: 4.5 mg/kg/injection, schedule: Q01DX001 (ip), vehicle: carboxymethylcellulose (CMC) 151 % of control
inactive: dose: 0.12 mg/kg/injection, schedule: Q01DX009 (ip), vehicle: carboxymethylcellulose (CMC) 116 % of control | dose: 0.29 mg/kg/injection, schedule: Q01DX009 (ip), vehicle: carboxymethylcellulose (CMC) 120 % of control | dose: 1.0 mg/kg/injection, schedule: Q01DX009 (ip), vehicle: carboxymethylcellulose (CMC) 118 % of control | dose: 1.3 mg/kg/injection, schedule: Q01DX001 (ip), vehicle: carboxymethylcellulose (CMC) 114 % of control and 115 % of control | dose: 1.3 mg/kg/injection, schedule: Q01DX009 (ip), vehicle: carboxymethylcellulose (CMC) 94 % of control | dose: 2.0 mg/kg/injection, schedule: Q01DX001 (ip), vehicle: carboxymethylcellulose (CMC) 112 % of control and 123 % of control | dose: 2.0 mg/kg/injection, schedule: Q01DX009 (ip), vehicle: carboxymethylcellulose (CMC) 94 % of control | dose: 2.5 mg/kg/injection, schedule: Q01DX009 (ip), vehicle: carboxymethylcellulose (CMC) 120 % of control | dose: 3.0 mg/kg/injection, schedule: Q01DX001 (ip), vehicle: carboxymethylcellulose (CMC) 119 % of control | dose: 3.37 mg/kg/injection, schedule: Q01DX009 (ip), vehicle: carboxymethylcellulose (CMC) 97 % of control

CCCCOC(=O)CNC(=O)c1ccc([N+](=O)[O-])s1
inactive: dose: 50.0 mg/kg/injection, schedule: Q01DX005 (ip), vehicle: saline 102 % of control | dose: 100.0 mg/kg/injection, schedule: Q01DX005 (ip), vehicle: saline 98 % of control | dose: 400.0 mg/kg/injection, schedule: Q01DX005 (ip), vehicle: saline 91 % of control

CC(C)(C(=O)O)C(=O)O
inactive: [1] 103 % of control | [2] 106 % of control

COc1ccc(OC)c(/C=C/c2ccnc3ccccc23)c1
inactive: dose: 50.0 mg/kg/injection, schedule: Q01DX001 (ip), vehicle: carboxymethylcellulose (CMC) 93 % of control | dose: 100.0 mg/kg/injection, schedule: Q01DX001 (ip), vehicle: carboxymethylcellulose (CMC) 96 % of control | dose: 200.0 mg/kg/injection, schedule: Q01DX001 (ip), vehicle: carboxymethylcellulose (CMC) 91 % of control | dose: 400.0 mg/kg/injection, schedule: Q01DX001 (ip), vehicle: carboxymethylcellulose (CMC) 87 % of control

CC(C)(C)[CH2][Sn]([Br])([Br])[CH2]C(C)(C)C
inactive: dose: 9.38 mg/kg/injection, schedule: Q01DX001 (ip), vehicle: other 98 % of control

CC(C)(C)c1cc(N)cc(C(C)(C)C)c1O
inactive: [3] 87 % of control | [4] 90 % of control

COc1ccc(Cl)cc1C/C=N/NC(=O)C[N+](C)(C)C
inactive: dose: 75.0 mg/kg/injection, schedule: Q01DX001 (ip), vehicle: saline 92 % of control

C[N+](C)(C)CCCC1C2CCC(C2)C1C[N+](C)(C)C (configuration not stated)
inactive: dose: 12.0 mg/kg/injection, schedule: Q01DX009 (ip), vehicle: saline 103 % of control | dose: 12.5 mg/kg/injection, schedule: Q04DX003 (ip), vehicle: saline 106 % of control | dose: 25.0 mg/kg/injection, schedule: Q01DX009 (ip), vehicle: saline 104 % of control | dose: 25.0 mg/kg/injection, schedule: Q04DX003 (ip), vehicle: saline 98 % of control

Nc1ccc2sc3ccccc3c2c1
inactive: dose: 50.0 mg/kg/injection, schedule: Q01DX009 (ip), vehicle: saline with Tween-80 106 % of control | [5] 105 % of control | [6] 95 % of control | [7] 104 % of control

COC1OC(C[N+](=O)[O-])C(OC(C)=O)C(OC(C)=O)C1OC(C)=O (configuration not stated)
inactive: dose: 100.0 mg/kg/injection, schedule: Q04DX002 (ip), vehicle: saline with Tween-80 102 % of control | [3] 109 % of control | [4] 95 % of control

COc1cc2c(c(OC)c1OC)-c1ccc(O)c(=O)cc1C(N)CC2 (configuration not stated)
inactive: dose: 6.25 mg/kg/injection, schedule: Q01DX009 (ip), vehicle: saline with Tween-80 98 % of control | dose: 12.5 mg/kg/injection, schedule: Q01DX009 (ip), vehicle: saline with Tween-80 100 % of control | dose: 25.0 mg/kg/injection, schedule: Q01DX009 (ip), vehicle: saline with Tween-80 94 % of control

Cc1cc(I)ccc1NC(=S)Nc1ccccc1F
inactive: [6] 93 % of control | [7] 105 % of control

Nc1c(Br)cccc1Br
inactive: [8] 101 % of control | [1] 109 % of control | [2] 103 % of control | dose: 400.0 mg/kg/injection, schedule: Q01DX001 (ip), vehicle: saline 97 % of control

CCCCNC1=C(NC(=O)C(Cl)Cl)C(=O)c2ccccc2C1=O
inactive: dose: 2.5 mg/kg/injection, schedule: Q01DX009 (ip), vehicle: saline with Tween-80 103 % of control | dose: 5.0 mg/kg/injection, schedule: Q01DX009 (ip), vehicle: saline with Tween-80 101 % of control | dose: 5.0 mg/kg/injection, schedule: Q04DX003 (ip), vehicle: saline with Tween-80 100 % of control | dose: 10.0 mg/kg/injection, schedule: Q01DX009 (ip), vehicle: saline with Tween-80 98 % of control | dose: 10.0 mg/kg/injection, schedule: Q04DX003 (ip), vehicle: saline with Tween-80 97 % of control

CCC1CN2CCc3cc(OC)c(OC)cc3C2CC1CC1c2cc(OC)c(OC)cc2CCN1C(=O)C1CCCN1 (configuration not stated)
inactive: [8] 95 % of control | [1] 111 % of control | [2] 95 % of control

CCC(=O)c1ccccc1NC(C)=O
inactive: [5] 97 % of control | dose: 200.0 mg/kg/injection, schedule: Q01DX009 (ip), vehicle: saline with Tween-80 96 % of control | dose: 400.0 mg/kg/injection, schedule: Q01DX009 (ip), vehicle: saline with Tween-80 101 % of control

Oc1c(Cl)c2nc3ccccc3nc2c2ccccc12
inactive: dose: 100.0 mg/kg/injection, schedule: Q04DX003 (ip), vehicle: Klucel (hydroxypropylcellulose) (HPC) 95 % of control | dose: 200.0 mg/kg/injection, schedule: Q04DX003 (ip), vehicle: Klucel (hydroxypropylcellulose) (HPC) 97 % of control | dose: 400.0 mg/kg/injection, schedule: Q04DX003 (ip), vehicle: Klucel (hydroxypropylcellulose) (HPC) 98 % of control

Cc1cn(CCCCOC(=O)c2ccc([N+](=O)[O-])cc2)c(=O)[nH]c1=O
inactive: dose: 100.0 mg/kg/injection, schedule: Q01DX001 (ip), vehicle: Klucel (hydroxypropylcellulose) (HPC) 95 % of control | dose: 200.0 mg/kg/injection, schedule: Q01DX001 (ip), vehicle: Klucel (hydroxypropylcellulose) (HPC) 100 % of control | dose: 400.0 mg/kg/injection, schedule: Q01DX001 (ip), vehicle: Klucel (hydroxypropylcellulose) (HPC) 87 % of control

CC(=O)C12OC(C)(C)OC1CC1C3CCC4=CC(=O)C=CC4(C)C3(F)C(O)CC12C (configuration not stated)
inactive: dose: 12.5 mg/kg/injection, schedule: Q04DX002 (ip), vehicle: Klucel (hydroxypropylcellulose) (HPC) 104 % of control | dose: 25.0 mg/kg/injection, schedule: Q04DX002 (ip), vehicle: Klucel (hydroxypropylcellulose) (HPC) 107 % of control | dose: 50.0 mg/kg/injection, schedule: Q04DX002 (ip), vehicle: Klucel (hydroxypropylcellulose) (HPC) 107 % of control
